Reference: patent publication US20050014824A1, “Pigment” (priority 2001, published 2005)

Key:
[1] = tested on: enzymes from salmon intestines; assay: hydrolysis of astaxanthin omega-3 fatty acid diester by enzyme mixture from salmon intestines, optical isomer distribution by HPLC of dicamphanates; format: in vitro ADME, Salmo salar
Protocol: As described in Example 1 below, hydrolysis experiments were performed with a diester of synthetic astaxanthin with omega-3 fatty acids and a crude enzyme preparation from salmon intestines in the same way as described before (NO-309386). The reaction products were analysed with regard to stereoisomer composition.
A diester of astaxanthin was prepared by conventional chemical synthesis from commercially obtained synthetic astaxanthin and an omega-3 fatty acid concentrate containing more than 90% omega-3 fatty acids, mainly EPA (eicosapentaenoic acid) and DHA (docosahexaenoic acid). The astaxanthin used had been prepared by chemical synthesis, and the distribution of the optical isomers (3R,3′R), meso and (3S,3′S) was 25.9:50.2:23.9, respectively, determined as described for the diol fraction.
The starting astaxanthin diester was treated with a freshly prepared enzyme mixture from the intestines of recently fed salmon (Salmo salar) for 48 hours. The pigment was then separated into three fractions by preparative thin-layer chromatography; a diol fraction with both hydroxyl groups hydrolysed, a monoester fraction with one hydroxyl group hydrolysed, and a remaining diester fraction. The astaxanthin in the diol fraction was converted into the corresponding diesters of (−)-camphanic acid by reaction with (−)-camphanoyl chloride, and the distribution of astaxanthin optical isomers were determined by high-performance liquid chromatography (HPLC) of the dicamphanates. The astaxanthin in the monoester fraction was first converted to diol in a hydrolysis reaction catalysed by the enzyme cholesterol esterase and subsequently treated with (−)-camphanic acid and analysed as described above. Attempts to convert the astaxanthin in the remaining diester fraction to diol using cholesterol esterase were not successful, as complete conversion was not obtained. The distribution of optical isomers of astaxanthin in the remaining diester fraction was therefore not determined.

salmonid fishes = settings: cited from earlier work
[2] = pigment fraction, enzyme treatment 48 hours, starting diester = before treatment

CC1=C(/C=C/C(C)=C/C=C/C(C)=C/C=C/C=C(C)/C=C/C=C(C)/C=C/C2=C(C)C(=O)[C@@H](O)CC2(C)C)C(C)(C)C[C@H](O)C1=O [Diol (after enzyme treatment)]
predominant optical isomer of astaxanthin in the fraction (in words) ([1]; after enzyme treatment): almost exclusively the (3R,3′R)-configuration, with traces of the meso-form
distribution of astaxanthin optical isomers: (3R,3′R) [1, 2]: 94.6
distribution of astaxanthin optical isomers: meso [1, 2]: 5.4

CC1=C(/C=C/C(C)=C/C=C/C(C)=C/C=C/C=C(C)/C=C/C=C(C)/C=C/C2=C(C)C(=O)[C@@H](O)CC2(C)C)C(C)(C)C[C@H](O)C1=O [astaxanthin]
absorption and deposition in the flesh of the optical isomers (salmonid fishes; in vivo): equally well absorbed and deposited

CCCCCCCCCCCCCCCC(=O)O[C@H]1CC(C)(C)C(/C=C/C(C)=C/C=C/C(C)=C/C=C/C=C(C)/C=C/C=C(C)/C=C/C2=C(C)C(=O)[C@@H](OC(=O)CCCCCCCCCCCCCCC)CC2(C)C)=C(C)C1=O [dipalmitate, of (3R,3′R)-astaxanthin]
utilisation by salmonids (salmonid fishes; diet containing the ester form, compared with dipalmitate of (3S,3′S)-astaxanthin): better than dipalmitate of (3S,3′S)-astaxanthin
